# According to patent publication US11014911B2, “CDK2 inhibitors” (Pfizer Inc., priority 2019, dated 2021):
# Target: CDK2/Cyclin E1 full length (Homo sapiens (Human), UniProt P24941)
# Test: CDK2/Cyclin E1 full length mobility shift assay
# Assay type: biochemical
row,SMILES,Ki
1,"CCCNC(=O)O[C@@H]1CC[C@H](c2cc(NC(=O)Cc3ccc(C)cc3S(C)(=O)=O)n[nH]2)C1 [Example 207, (1R,3S)-3-[3-({[4-methyl-2-(methylsulfonyl)phenyl]acetyl}amino)-1H-pyrazol-5-yl]cyclopentyl propylcarbamate]",0.66 nM
2,"CC(C)(C)NC(=O)O[C@@H]1CC[C@H](c2cc(NC(=O)Cc3coc(C4CC4)n3)n[nH]2)C1 [Example 306, (1R,3S)-3-(3-{[(2-cyclopropyl-1,3-oxazol-4-yl)acetyl]amino}-1H-pyrazol-5-yl)cyclopentyl tert-butylcarbamate]",1.09 nM
3,CC1(NC(=O)O[C@@H]2CC[C@H](c3cc(NC(=O)Cc4cnc(C(F)(F)F)cn4)n[nH]3)C2)CC1 [Example 130],0.25 nM
4,"COc1cc(CC(=O)Nc2cc([C@@H]3CC[C@H](OC(N)=O)C3)[nH]n2)ccn1 [Example 257, (1S,3R)-3-(3-{[(2-methoxypyridin-4-yl)acetyl]amino}-1H-pyrazol-5-yl)cyclopentyl carbamate]",4.2 nM
5,"CC1(NC(=O)O[C@@H]2CC[C@H](c3cc(NC(=O)CC4COc5ccccc54)n[nH]3)C2)CCOC1 (single isomer, unassigned) [Example 490]",3.68 nM
6,"CC[C@H](C)NC(=O)O[C@@H]1CC[C@H](c2cc(NC(=O)Cc3cccnc3OC)n[nH]2)C1 [Example 345, (1R,3S)-3-(3-{[(2-methoxypyridin-3-yl)acetyl]amino}-1H-pyrazol-5-yl)cyclopentyl (2S)-butan-2-ylcarbamate]",2.66 nM
7,"Cn1ncc(CC(=O)Nc2cc([C@H]3CC[C@@H](OC(=O)NCCC(F)(F)F)C3)[nH]n2)n1 [Example 217, (1R,3S)-3-(3-{[(2-methyl-2H-1,2,3-triazol-4-yl)acetyl]amino}-1H-pyrazol-5-yl)cyclopentyl (3,3,3-trifluoropropyl)carbamate]",2.22 nM
8,"CC(C)NC(=O)O[C@@H]1CC[C@H](c2cc(NC(=O)Cc3ccn(C)n3)n[nH]2)C1 [Example 267, (1R,3S)-3-(3-{[(1-methyl-1H-pyrazol-3-yl)acetyl]amino}-1H-pyrazol-5-yl)cyclopentyl propan-2-ylcarbamate]",3.02 nM
9,"CCC(O)CNC(=O)O[C@@H]1CC[C@H](c2cc(NC(=O)Cc3cc(F)cc(F)c3)n[nH]2)C1 (single isomer, unassigned) [Example 542]",2.41 nM
10,"COc1cc(C(=O)Nc2cc([C@H]3CC[C@@H](OC(=O)NC4(C)CCOC4)C3)[nH]n2)n(C)n1 (single isomer, unassigned) [Example 480]",2.01 nM
11,"Cc1nc(CC(=O)Nc2cc([C@H]3CC[C@@H](OC(=O)NC4(C)CC4)C3)[nH]n2)ccc1Cl [Example 442, (1R,3S)-3-(3-{[(5-chloro-6-methylpyridin-2-yl)acetyl]amino}-1H-pyrazol-5-yl)cyclopentyl (1-methylcyclopropyl)carbamate]",0.37 nM
12,"COc1cc(CC(=O)Nc2cc([C@@H]3CC[C@H](OC(=O)NCC4CCN(C(C)=O)CC4)C3)[nH]n2)ccn1 [Example 581, (1S,3R)-3-(3-{[(2-methoxypyridin-4-yl)acetyl]amino}-1H-pyrazol-5-yl)cyclopentyl[(1-acetylpiperidin-4-yl)methyl]carbamate]",2.62 nM
13,"CC(CC(F)(F)F)NC(=O)O[C@@H]1CC[C@H](c2cc(NC(=O)Cc3ccn(C)n3)n[nH]2)C1 (single isomer, unassigned) [Example 65]",2.21 nM
14,"Cc1nnc(CC(=O)Nc2cc([C@H]3CC[C@@H](OC(=O)NC4(C)CCC4)C3)[nH]n2)s1 [Example 18, (1R,3S)-3-(3-{[(5-methyl-1,3,4-thiadiazol-2-yl)acetyl]amino}-1H-pyrazol-5-yl)cyclopentyl (1-methylcyclobutyl)carbamate]",0.17 nM
15,"CC1(NC(=O)O[C@@H]2CC[C@H](c3cc(NC(=O)Cc4ccc(F)cn4)n[nH]3)C2)CC1 [Example 430, (1R,3S)-3-(3-{[(5-fluoropyridin-2-yl)acetyl]amino}-1H-pyrazol-5-yl)cyclopentyl (1-methylcyclopropyl)carbamate]",1.14 nM
16,"Cc1ncc(CC(=O)Nc2cc([C@H]3CC[C@@H](OC(=O)N[C@@H]4CCC[C@@H]4C)C3)[nH]n2)o1 [Example 462, (1R,3S)-3-(3-{[(2-methyl-1,3-oxazol-5-yl)acetyl]amino}-1H-pyrazol-5-yl)cyclopentyl [(1R,2S)-2-methylcyclopentyl]carbamate]",1.74 nM
17,"CCC(O)CNC(=O)O[C@@H]1CC[C@H](c2cc(NC(=O)Cc3ccc(OC)cc3)n[nH]2)C1 (single isomer, unassigned) [Example 540]",2.65 nM
18,"COc1cc(CC(=O)Nc2cc([C@@H]3CC[C@H](OC(=O)NC4CCOCC4)C3)[nH]n2)ccn1 [Example 503, (1S,3R)-3-(3-{[(2-methoxypyridin-4-yl)acetyl]amino}-1H-pyrazol-5-yl)cyclopentyl tetrahydro-2H-pyran-4-ylcarbamate]",2.13 nM
19,"COc1ccc(CC(=O)Nc2cc([C@H]3CC[C@@H](OC(=O)N[C@H]4CC[C@](C)(O)CC4)C3)[nH]n2)cc1 [Example 567, (1R,3S)-3-(3-{[(4-methoxyphenyl)acetyl]amino}-1H-pyrazol-5-yl)cyclopentyl (trans-4-hydroxy-4-methylcyclohexyl)carbamate]",1.61 nM

row,SMILES,Ki
1,"COc1cc(CC(=O)Nc2cc([C@H]3CC[C@@H](OC(=O)N4C[C@@H](C#N)[C@@H]4C)C3)[nH]n2)ccn1 (single isomer, unassigned) [Example 156]",2.21 nM
2,"Cc1cnc(CC(=O)Nc2cc([C@H]3CC[C@@H](OC(=O)NC4(C)CC4)C3)[nH]n2)c(Cl)c1 [Example 438, (1R,3S)-3-(3-{[(3-chloro-5-methylpyridin-2-yl)acetyl]amino}-1H-pyrazol-5-yl)cyclopentyl (1-methylcyclopropyl)carbamate]",2.5 nM
3,"CCC(CO)CNC(=O)O[C@@H]1CC[C@H](c2cc(NC(=O)Cc3cnc(C)o3)n[nH]2)C1 (single isomer, unassigned) [Example 526]",3.95 nM
4,"Cc1cccnc1CC(=O)Nc1cc([C@H]2CC[C@@H](OC(=O)NC3(C)CC3)C2)[nH]n1 [Example 427, (1R,3S)-3-(3-{[(3-methylpyridin-2-yl)acetyl]amino}-1H-pyrazol-5-yl)cyclopentyl (1-methylcyclopropyl)carbamate]",1.78 nM
5,"CCC(O)CNC(=O)O[C@@H]1CC[C@H](c2cc(NC(=O)Cc3ccc(OC)cc3)n[nH]2)C1 (single isomer, unassigned) [Example 541]",1.85 nM
6,"COc1cnc(CC(=O)Nc2cc([C@H]3CC[C@@H](OC(=O)NCCC(F)(F)F)C3)[nH]n2)cn1 [Example 222, (1R,3S)-3-(3-{[(5-methoxypyrazin-2-yl)acetyl]amino}-1H-pyrazol-5-yl)cyclopentyl (3,3,3-trifluoropropyl)carbamate]",2.93 nM
7,"Cc1cnc(CC(=O)Nc2cc([C@H]3CC[C@@H](OC(=O)NC4(C)CCOC4)C3)[nH]n2)o1 (single isomer, unassigned) [Example 478]",1.13 nM
8,"O=C(Cc1cc(F)cc(F)c1)Nc1cc([C@@H]2CC[C@H](OC(=O)NC[C@@H]3CCCO3)C2)[nH]n1 [Example 499, (1S,3R)-3-(3-{[(3,5-difluorophenyl)acetyl]amino}-1H-pyrazol-5-yl)cyclopentyl [(2S)-tetrahydrofuran-2-ylmethyl]carbamate]",2.55 nM
9,COc1cnc(CC(=O)Nc2cc([C@H]3CC[C@@H](OC(=O)N[C@@H](C)C4CC4)C3)[nH]n2)cn1 [Example 106],0.76 nM
10,"Cc1cc(Cl)cnc1CC(=O)Nc1cc([C@H]2CC[C@@H](OC(=O)NC3(C)CC3)C2)[nH]n1 [Example 439, (1R,3S)-3-(3-{[(5-chloro-3-methylpyridin-2-yl)acetyl]amino}-1H-pyrazol-5-yl)cyclopentyl (1-methylcyclopropyl)carbamate]",2.37 nM
11,"COc1cnc(CC(=O)Nc2cc([C@H]3CC[C@@H](OC(=O)NC4(CC(F)(F)F)CC4)C3)[nH]n2)cn1 [Example 456, (1R,3S)-3-(3-{[(5-methoxypyrazin-2-yl)acetyl]amino}-1H-pyrazol-5-yl)cyclopentyl [1-2,2,2-trifluoroethyl)cyclopropyl] carbamate]",0.38 nM
12,"Cc1nnc(CC(=O)Nc2cc([C@H]3CC[C@@H](OC(=O)NC(C)(C)C)C3)[nH]n2)s1 [Example 305, (1R,3S)-3-(3-{[(5-methyl-1,3,4-thiadiazol-2-yl)acetyl]amino}-1H-pyrazol-5-yl)cyclopentyl tert-butylcarbamate]",0.52 nM
13,"COc1cc(CC(=O)Nc2cc([C@H]3CC[C@@H](OC(=O)NCC(F)F)C3)[nH]n2)ccn1 [Example 251, (1R,3S)-3-(3-{[(2-methoxypyridin-4-yl)acetyl]amino}-1H-pyrazol-5-yl)cyclopentyl (2,2-difluoroethyl)carbamate]",1.83 nM
14,"O=C(Cc1ccno1)Nc1cc([C@H]2CC[C@@H](OC(=O)NCC(F)F)C2)[nH]n1 [Example 246, (1R,3S)-3-{3-[(1,2-oxazol-5-ylacetyl)amino]-1H-pyrazol-5-yl}cyclopentyl (2,2-difluoroethyl)carbamate]",3.29 nM
15,"COc1ccc(CC(=O)Nc2cc([C@H]3CC[C@@H](OC(=O)N4CCC4C)C3)[nH]n2)cn1 (single isomer, unassigned) [Example 152]",1.06 nM
16,"COc1cnc(CC(=O)Nc2cc([C@H]3CC[C@@H](OC(=O)NC(C)(C)C)C3)[nH]n2)s1 [Example 311, (1R,3S)-3-(3-{[(5-methoxy-1,3-thiazol-2-yl)acetyl]amino}-1H-pyrazol-5-yl)cyclopentyl tert-butylcarbamate]",0.36 nM
17,"O=C(Cc1cc(F)cc(F)c1)Nc1cc([C@@H]2CC[C@H](OC(=O)NC[C@H]3C[C@@H](O)C3)C2)[nH]n1 [Example 575, (1S,3R)-3-(3-{[(3,5-difluorophenyl)acetyl]amino}-1H-pyrazol-5-yl)cyclopentyl [(cis-3-hydroxycyclobutyl)methyl] carbamate]",2.28 nM
18,"COc1cc(CC(=O)Nc2cc([C@H]3CC[C@@H](OC(=O)NC4CCOCC4)C3)[nH]n2)ccn1 [Example 504, (1R,3S)-3-(3-{[(2-methoxypyridin-4-yl)acetyl]amino}-1H-pyrazol-5-yl)cyclopentyl tetrahydro-2H-pyran-4-ylcarbamate]",3.64 nM
19,Cn1ncc(CC(=O)Nc2cc([C@H]3CC[C@@H](OC(=O)NC(C)(C)C)C3)[nH]n2)n1 [Example 110],0.29 nM
